Results reported in patent US12285426B2, “Combination serotonin specific reuptake inhibitor and serotonin 1A receptor partial agonist for reducing L-DOPA-induced dyskinesia” (The Research Foundation for The State University of new York, priority 2018, dated 2025).

Legend:
dyskinesia = conditions: human and animal studies; cited from earlier work
[1] = tested on: L-DOPA-induced dyskinesia; assay: FIG. 23A-23C: ALO AIMs, vilazodone and/or amantadine with L-DOPA
[2] = tested on: L-DOPA-induced dyskinesia; assay: FIG. 24: LID development over 14 days, vilazodone and/or amantadine; type: in vivo; conditions: over 14 days
Excerpt: FIGS. 24B-24E show percent intact+S.E.M. over time for the respective groups.

[3] = tested on: lesion-induced motor deficits; assay: FIG. 23D: % intact stepping; type: in vivo; conditions: L-DOPA alone or with AMA 40 mg/kg and/or VZD 2.5 mg/kg
[4] = cited from earlier work

NC12CC3CC(CC(C3)C1)C2 [Amantadine, 1-adamantanamine]
EC50 (plasma level reducing dyskinesia by 50%) (dyskinesia): 1,400 ng/mL | side effects ([1]; AMA 60 mg/kg): appeared to produce side effects | ALO AIMs ([1]; AMA 20, 40, 60 mg/kg + L-DOPA): did not appear to alter AIMs | ALO AIMs, combined amantadine and vilazodone ([1]; VZD 2.5 mg/kg, AMA 40 mg/kg, L-DOPA): counteracted by Amantadine | ALO AIMs, LID development [2]: initially reduced AIMs, but this suppression diminished over time | % intact stepping [3]: may reduce improvements | peak plasma concentrations ([4]; IR 100 mg twice a day): < 1,000 ng/mL | half-life ([4]; in vivo): around 17 hours | maximum plasma concentration ([4]; single dose 100 mg): around 220 ng/mL
